Reference: PMC7417813, “Synthesis and Biological Evaluation of Thio-Derivatives of 2-Hydroxy-1,4-Naphthoquinone (Lawsone) as Novel Antiplatelet Agents” (Frontiers in Chemistry, 2020)
Entries after “also recorded” stand apart in the source; their conditions may differ. Where two headings read alike, the source gives them in different places.

Key:
[1] = system: TRAP-6-stimulated platelets; assay: Platelet aggregation induced by TRAP-6 (light transmission, lumi-aggregometer); assay type: cell-based, human; settings: platelet aggregation induced by TRAP-6 (5 μM), washed platelets pre-incubated 5 min at 37°C, read-out: IC50 (μM) ± SD TRAP-6 (5 μM)
Procedure: (§1) Platelet aggregation was evaluated using a lumi-aggregometer (Chrono-Log, Haverton, PA, USA) and monitored by light transmission according to Fuentes et al. (Fuentes et al., [2014a]; Mendez et al., [2020]). Briefly, washed platelets (200 × 10^9 platelets/L) were pre-incubated for 5 min at 37°C and pH 7.4 with vehicle or different doses of compounds; then platelet aggregation was induced by TRAP-6 (5 μM) or collagen (1 μg/mL) and measured for 5 min at 37°C while stirring.
(§2) The data obtained were presented as a mean ± standard deviation (SD) of three independent experiments and analyzed using Prism 8.3 software (GraphPad Inc., San Diego CA, USA). The half-maximal inhibitory concentration (IC50) was calculated from dose-response curves. Differences between samples were analyzed using Tukey or paired t-test (Vaiyapuri et al., [2013]). P-values < 0.05 were considered as significant (Fuentes et al., [2014b]; Munoz-Gutierrez et al., [2017]).

[2] = system: washed platelets; assay: Lactate dehydrogenase (LDH)-based cytotoxicity assay on washed platelets; settings: for cytotoxicity on platelets by LDH leakage (in words): 100 μM, 10 min at 37°C; for Cytotoxic activity Mean (%) ± SD: LDH release as percentage of total enzyme activity (0.3% Triton X-100 lysis), 100 μM compound, 10 min, 37°C, washed platelets
Procedure: Platelets were obtained from citrated whole blood of healthy volunteers (two weeks drugs-free) with written informed consent, as previously described (Fuentes et al., [2014a]).
Washed platelets (200 × 10^9 platelets/L) were incubated for 10 min at 37°C with DMSO (vehicle) 0.2% or 100 μM of compounds. Then, platelets are centrifuged (800 × g for 8 min), and 50 μL aliquots of the resulting supernatant analyzed by the LDH assay (Cayman Chemical, USA).

[3] = system: collagen-stimulated platelets; assay: Platelet aggregation induced by collagen (light transmission, lumi-aggregometer); assay type: cell-based, human; settings: platelet aggregation induced by collagen (1 μg/mL), washed platelets pre-incubated 5 min at 37°C, read-out: IC50 (μM) ± SD Collagen (1 μg/mL)
Procedure: as §1, §2

[4] = system: P-selectin; assay: P-selectin expression on platelets (flow cytometry); assay type: cell-based, human; settings: compound at 10 and 40 μM, Figure 3C
Procedure: (§3) Externalization of phosphatidylserine, glycoprotein (GP) IIb/IIIa activation, P-selectin expression, CD63 release, and ROS levels on platelets were determined by flow cytometry (Ritchie et al., [2000]; Fuentes et al., [2014b]; Walsh et al., [2014]). All results were analyzed in the Accuri C6 flow cytometer (BD, Biosciences, USA).
(§4) Figure 3 Antiplatelet activity of compound 4. (A) Externalization of phosphatidylserine was evaluated by annexin-V binding. (B) Levels of CD63 on the surface of platelets after activation by TRAP-6 (5 μM) or collagen (1 μg/mL). (C) P-selectin expression was measured by flow cytometry in platelets stimulated with TRAP-6 (5 μM) or collagen (1 μg/mL). (D) GPIIb/IIIa activation stimulated by TRAP-6 (5 μM) or collagen (1 μg/mL) was determined by flow cytometry using the PAC-1 antibody. The graph depicts the mean ± SD of n = 3 experiments. The black graph is the control of resting platelets. ^*p < 0.05, ^**p < 0.01, and ^***p < 0.001 vs. 0 (vehicle DMSO 0.2%).

[5] = system: platelets; assay: Externalization of phosphatidylserine by annexin-V binding (flow cytometry); assay type: cell-based, human; settings: Figure 3A
Procedure: as §3, §4

[6] = system: GPIIb/IIIa; assay: GPIIb/IIIa activation by PAC-1 antibody binding (flow cytometry); assay type: cell-based, human; settings: Figure 3D
Procedure: as §3, §4
Small structural changes led to the synthesis of non-toxic lawsone thio-derivatives with potent antiplatelet activity (Tables 1, 3). […] Thus, we decided to deeply analyze the effects of compound 4 in platelets. […] We analyzed the activated form of GPIIb/IIIa by studying the binding of FITC-labeled PAC-1 antibody by flow cytometry (Fuentes et al., [2014a]).

[7] = system: CD63; assay: CD63 levels on the surface of platelets (flow cytometry); assay type: cell-based, human; settings: Figure 3B
Procedure: as §3, §4

Compound | cytotoxicity on platelets by LDH leakage (in words) [2] | Cytotoxic activity Mean (%) ± SD [2] [%] | IC50 ([1]; Homo sapiens) [µM] | IC50 ([3]; Homo sapiens) [µM] | melting point | other results
2-((2-bromophenyl)thio)-3-hydroxynaphthalene-1,4-dione [Compound 2] | did not exert cytotoxicity | 14.72 ± 10.92 | – | – | – | IC50 [1]: 112 ± 17.5 µM; IC50 [3]: 11.2 ± 3.9 µM
2-((4-Bromophenyl)thio)-3-hydroxynaphthalene-1,4-dione [Compound 4] | no cytotoxicity was observed; also recorded: did not exert cytotoxicity; also recorded: non-toxic | 22.38 ± 5.78 | – | – | – | P-selectin expression on activated platelets ([4]; TRAP-6 (5 μM)): inhibited; P-selectin expression on activated platelets ([4]; collagen (1 μg/mL)): inhibited; phosphatidylserine exposure [5]: unable to affect; IC50 [1]: 15 ± 1.52 µM; IC50 [3]: 5.58 ± 1.01 µM; PAC-1 binding to platelets (GPIIb/IIIa activation) ([6]; TRAP-6-induced): inhibited; PAC-1 binding to platelets (GPIIb/IIIa activation) ([6]; collagen-induced): inhibited; expression of CD63 on platelets' membrane ([7]; after activation with TRAP-6 (5 μM)): decreased; expression of CD63 on platelets' membrane ([7]; after activation with collagen (1 μg/mL)): decreased
O=C1C(O)=C(Sc2ccccc2)C(=O)c2ccccc21 [Compound 1, 2-Hydroxy-3-(phenylthio)naphthalene-1,4-dione] | did not exert cytotoxicity | 22.35 ± 2.94 | 155 ± 55.2 | 14.6 ± 5.43 | – | –
COC(=O)c1ccccc1SC1=C(O)C(=O)c2ccccc2C1=O [Compound 5, Methyl 2-((3-hydroxy-1,4-dioxo-1,4-dihydronaphthalen-2-yl)thio)benzoate] | had a cytotoxic activity | 31.12 ± 3.06 | – | – | 235 °C (dec.) | –
O=C1C(O)=C(Sc2ccccc2F)C(=O)c2ccccc21 [Compound 6, 2-((2-Fluorophenyl)thio)-3-hydroxynaphthalene-1,4-dione] | did not exert cytotoxicity | 21.77 ± 2.37 | > 500 | 10.6 ± 2.25 | – | –
O=C1C(O)=C(Sc2cccc(F)c2)C(=O)c2ccccc21 [Compound 7, 2-((3-Fluorophenyl)thio)-3-hydroxynaphthalene-1,4-dione] | did not exert cytotoxicity | 21.50 ± 2.37 | 134 ± 17.3 | 11.1 ± 1.69 | 268.7 °C (dec.) | –
O=C1C(O)=C(Sc2ccc(F)cc2)C(=O)c2ccccc21 [Compound 8, 2-((4-Fluorophenyl)thio)-3-hydroxynaphthalene-1,4-dione] | did not exert cytotoxicity | 21.62 ± 4.17 | 108 ± 53 | 12.1 ± 1.21 | 268 °C (dec.) | –
O=C1C=C(O)C(=O)c2ccccc21 [Lawsone, 2-hydroxy-1,4-naphthoquinone] | had a cytotoxic activity | 32.80 ± 3.13 | – | – | – | –
